In brackets after ≈: the same amount, converted by molar mass.

For data set [1], the system named is Enterococcus faecalis. Nature of the data set: Antibacterial activity against Enterococcus faecalis ATCC 6569. The data set is classed as functional.
For data set [2], the system named is Enterococcus faecium. Nature of the data set: Antibacterial activity against Enterococcus faecium ATCC 49452. The data set is classed as functional.
The test system of data set [3] is Staphylococcus aureus. Nature of the data set: Antibacterial activity against methicillin susceptible staphylococcus aureus ATCC 29213. The data set is classed as functional.
For data set [4], the system named is Staphylococcus aureus. Put plainly: Antibacterial activity against methicillin-resistant staphylococcus aureus ATCC 43300. The data set is classed as functional.
A short description of data set [5]: Half-life in mice. The class given is ADME, organism-based. To be noted: mouse, in vivo.
Data set [6] in a line: Vd in mice. The class given is ADME, organism-based. The following applies: mouse, in vivo.
The nature of data set [7]: Total plasma clearance in mice. The class given is ADME, organism-based. To be noted: mouse.
In data set [8] the test system is Enterococcus faecalis. Nature of the data set: Antibacterial activity against Enterococcus faecalis ATCC 6569 at 10 % serum. The data set is classed as functional. The following applies: ATCC 6569, Serum.
Data set [9] deals with Enterococcus faecium. Put plainly: Antibacterial activity against Enterococcus faecium ATCC 49452 at 10 % serum. To be noted: ATCC 49452, Serum. The class given is functional.
The species named for data set [10] is Mus musculus. Nature of the data set: Protective dose against methicillin-resistant staphylococcus aureus ATCC 43300 was determined in mice. The following applies: read-out: PD50. The class given is functional.
The subject of data set [11] is Staphylococcus aureus. Nature of the data set: Antibacterial activity against methicillin-resistant staphylococcus aureus ATCC 43300 at 0 % serum. The data set is classed as functional.
Data set [12] has as its system Staphylococcus aureus. Put plainly: Antibacterial activity against methicillin susceptible staphylococcus aureus ATCC 29213 at 10 % serum. The class given is functional.
In data set [13] the test system is Staphylococcus aureus. Nature of the data set: Antibacterial activity against methicillin-resistant staphylococcus aureus ATCC 43300 at 10 % serum. The class given is functional.
Data set [14] concerns Enterococcus faecalis. Nature of the data set: Antibacterial activity against Enterococcus faecalis ATCC 6569 at 0 % serum. The data set is classed as functional.
Data set [15] concerns Enterococcus faecium. Put plainly: Antibacterial activity against Enterococcus faecium ATCC 49452 at 0 % serum. The class given is functional.
Data set [16] relates to Staphylococcus aureus. Put plainly: Antibacterial activity against methicillin susceptible staphylococcus aureus ATCC 29213 at 0 % serum. The data set is classed as functional.
The test system of data set [17] is Staphylococcus aureus. Put plainly: Antibacterial activity against methicillin-resistant staphylococcus aureus ATCC 43300 at 10 % serum in mice. The data set is classed as functional.
Data set [18] has as its system Enterococcus faecium. Put plainly: Antibacterial activity against Enterococcus faecium ATCC 49452 at 10 % serum in mice. The data set is classed as functional. The following applies: ATCC 49452, Serum.
The subject of data set [19] is Enterococcus faecalis. Put plainly: Antibacterial activity against Enterococcus faecalis ATCC 6569 at 0 % serum in mice. The class given is functional.
Data set [20] has as its system Enterococcus faecalis. Put plainly: Antibacterial activity against Enterococcus faecalis ATCC 6569 at 10 % serum in mice. The class given is functional.
For data set [21], the system named is Staphylococcus aureus. Put plainly: Antibacterial activity against methicillin-resistant staphylococcus aureus ATCC 43300 at 0 % serum in mice. The data set is classed as functional.
Data set [22] concerns Enterococcus faecium. Put plainly: Antibacterial activity against Enterococcus faecium ATCC 49452 at 0 % serum in mice. The data set is classed as functional.

For the compound `CCCCCCCCCC(=O)N[C@@H](Cc1c[nH]c2ccccc12)C(=O)N[C@H](CC(N)=O)C(=O)N[C@@H](CCO)C(=O)N[C@@H]1C(=O)NCC(=O)N[C@@H](CCCNC(=O)C(N)Cc2c[nH]c3ccc(F)cc23)C(=O)N[C@@H](CC(=O)O)C(=O)N[C@H](C)C(=O)N[C@@H](CC(=O)O)C(=O)NCC(=O)N[C@H](CO)C(=O)N[C@@H]([C@H](C)CC(=O)O)C(=O)N[C@@H](CC(=O)c2ccccc2N)C(=O)O[C@@H]1C` (some centres not stated), the results for the MIC in data set [1] and in data set [2] were 3.1 µg/mL (≈ 1.71 µM) and 12.5 µg/mL (≈ 6.9 µM), respectively.
`CCCCCCCCCC(=O)N[C@@H](Cc1c[nH]c2ccccc12)C(=O)N[C@H](CC(N)=O)C(=O)N[C@@H](CCO)C(=O)N[C@@H]1C(=O)NCC(=O)N[C@@H](CCCNC(=O)c2c(N)cccc2F)C(=O)N[C@@H](CC(=O)O)C(=O)N[C@H](C)C(=O)N[C@@H](CC(=O)O)C(=O)NCC(=O)N[C@H](CO)C(=O)N[C@@H]([C@H](C)CC(=O)O)C(=O)N[C@@H](CC(=O)c2ccccc2N)C(=O)O[C@@H]1C`: the MIC in data set [1] and in data set [2] was 3.1 µg/mL (≈ 1.78 µM) in each case.
Take `CCCCCCCCCC(=O)N[C@@H](Cc1c[nH]c2ccccc12)C(=O)N[C@H](CC(N)=O)C(=O)N[C@@H](CCO)C(=O)N[C@@H]1C(=O)NCC(=O)N[C@@H](CCCNC(=O)c2ccccc2N)C(=O)N[C@@H](CC(=O)O)C(=O)N[C@H](C)C(=O)N[C@@H](CC(=O)O)C(=O)NCC(=O)N[C@H](CO)C(=O)N[C@@H]([C@H](C)CC(=O)O)C(=O)N[C@@H](CC(=O)c2ccccc2N)C(=O)O[C@@H]1C`: the MIC in data set [3] came to 1.56 µg/mL (≈ 0.904 µM); in data set [1], 3.1 µg/mL (≈ 1.8 µM); in data set [4], 0.78 µg/mL (≈ 0.452 µM); in data set [2] it was 12.5 µg/mL (≈ 7.24 µM).
As for `CCCCCCCCCC(=O)N[C@@H](Cc1c[nH]c2ccccc12)C(=O)N[C@H](CC(N)=O)C(=O)N[C@@H](CCO)C(=O)N[C@@H]1C(=O)NCC(=O)N[C@@H](CCCNC(=O)c2ccccc2)C(=O)N[C@@H](CC(=O)O)C(=O)N[C@H](C)C(=O)N[C@@H](CC(=O)O)C(=O)NCC(=O)N[C@H](CO)C(=O)N[C@@H]([C@H](C)CC(=O)O)C(=O)N[C@@H](CC(=O)c2ccccc2N)C(=O)O[C@@H]1C`, the MIC stood at 12.5 µg/mL (≈ 7.31 µM) in [3], 25 µg/mL (≈ 14.6 µM) in data set [1], 6.25 µg/mL (≈ 3.65 µM) in [4] and 25 µg/mL (≈ 14.6 µM) in data set [2].
As to `CCCCCCCCCC(=O)N[C@@H](Cc1c[nH]c2ccccc12)C(=O)N[C@H](CC(N)=O)C(=O)N[C@@H](CCO)C(=O)N[C@@H]1C(=O)NCC(=O)N[C@@H](CCCNC(=O)c2ccccc2S(=O)(=O)O)C(=O)N[C@@H](CC(=O)O)C(=O)N[C@H](C)C(=O)N[C@@H](CC(=O)O)C(=O)NCC(=O)N[C@H](CO)C(=O)N[C@@H]([C@H](C)CC(=O)O)C(=O)N[C@@H](CC(=O)c2ccccc2N)C(=O)O[C@@H]1C`, the minimum inhibitory concentration (MIC) in data set [3], in data set [1], in [4] and in [2] was 100 µg/mL (≈ 55.8 µM) in each case.
In data set [5], `CCCCCCCCCC(=O)N[C@@H](Cc1c[nH]c2ccccc12)C(=O)N[C@H](CC(N)=O)C(=O)N[C@@H](CC(=O)O)C(=O)N[C@@H]1C(=O)NCC(=O)N[C@@H](CCCNCc2ccc(-c3ccccc3)cc2)C(=O)N[C@@H](CC(=O)O)C(=O)N[C@H](C)C(=O)N[C@@H](CC(=O)O)C(=O)NCC(=O)N[C@H](CO)C(=O)N[C@@H]([C@H](C)CC(=O)O)C(=O)N[C@@H](CC(=O)c2ccccc2N)C(=O)O[C@@H]1C` [listing 1 of 2 here] had a half-life of 7.9 h. This compound yielded a Vd in data set [6] of 0.107 L/kg. Moreover, in [7], the clearance is 0.157 mL/min/kg.
As to `CCCCCCCCCC(=O)N[C@@H](Cc1c[nH]c2ccccc12)C(=O)N[C@H](CC(N)=O)C(=O)N[C@@H](CC(=O)O)C(=O)N[C@@H]1C(=O)NCC(=O)N[C@@H](CCCNCc2ccc(-c3ccccc3)cc2)C(=O)N[C@@H](CC(=O)O)C(=O)N[C@H](C)C(=O)N[C@@H](CC(=O)O)C(=O)NCC(=O)N[C@H](CO)C(=O)N[C@@H]([C@H](C)CC(=O)O)C(=O)N[C@@H](CC(=O)c2ccccc2N)C(=O)O[C@@H]1C` [listing 2 of 2 here], the MIC in data set [8] stood at 12.5 µg/mL (≈ 7 µM); in [9], 25 µg/mL (≈ 14 µM); in data set [11], 0.2 µg/mL (≈ 0.112 µM); in data set [12] it was 3.13 µg/mL (≈ 1.75 µM); in [13] it was 1.56 µg/mL (≈ 0.873 µM); in data set [14], 1.56 µg/mL (≈ 0.873 µM). Besides, the MIC is 1.56 µg/mL (≈ 0.873 µM) in [15] and 0.39 µg/mL (≈ 0.218 µM) in [16]. In addition, the ED50 in [10] was 1.04 mg/kg.
Consider `CCCCCCCCCC(=O)N[C@@H](Cc1c[nH]c2ccccc12)C(=O)N[C@H](CC(N)=O)C(=O)N[C@@H](CCO)C(=O)N[C@@H]1C(=O)NCC(=O)N[C@@H](CCCNCc2ccc(S(=O)(=O)N3CCN(c4ncccn4)CC3)cc2)C(=O)N[C@@H](CC(=O)O)C(=O)N[C@H](C)C(=O)N[C@@H](CC(=O)O)C(=O)NCC(=O)N[C@H](CO)C(=O)N[C@@H]([C@H](C)CC(=O)O)C(=O)N[C@@H](CC(=O)c2ccccc2N)C(=O)O[C@@H]1C`, for which the minimum inhibitory concentration (MIC) in data set [8] was 6.25 µg/mL (≈ 3.25 µM); in data set [9] it was 12.5 µg/mL (≈ 6.5 µM); in data set [11], 0.39 µg/mL (≈ 0.203 µM); in [12] it was 1.56 µg/mL (≈ 0.811 µM); in data set [13], 1.56 µg/mL (≈ 0.811 µM); in data set [14], 3.13 µg/mL (≈ 1.63 µM). In addition, the MIC in data set [15] worked out at 3.13 µg/mL (≈ 1.63 µM); in data set [16] it was 0.78 µg/mL (≈ 0.406 µM).
`CCCCCCCCCC(=O)N[C@@H](Cc1c[nH]c2ccccc12)C(=O)N[C@H](CC(N)=O)C(=O)N[C@@H](CC(=O)O)C(=O)N[C@@H]1C(=O)NCC(=O)N[C@@H](CCCN)C(=O)N[C@@H](CC(=O)O)C(=O)N[C@H](C)C(=O)N[C@@H](CC(=O)O)C(=O)NCC(=O)N[C@H](CO)C(=O)N[C@@H]([C@H](C)CC(=O)O)C(=O)N[C@@H](CC(=O)c2ccccc2N)C(=O)O[C@@H]1C`: the MIC in [17] was found to be 0.78 µg/mL (≈ 0.481 µM); in data set [18] it was 1.56 µg/mL (≈ 0.963 µM); in data set [19] it was 1.56 µg/mL (≈ 0.963 µM); in data set [20], 3.13 µg/mL (≈ 1.93 µM); in data set [21] it was 0.78 µg/mL (≈ 0.481 µM); in data set [22], 1.56 µg/mL (≈ 0.963 µM).
